Reference: patent publication US20170121322A1, “BET-PROTEIN INHIBITING 3,4-DIHYDROPYRIDO[2,3-B]PYRAZINONES WITH META-SUBSTITUTED AROMATIC AMINO- OR ETHER GROUPS” (Bayer Pharma Aktiengesellschaft, priority 2014, published 2017)

Key:
CHL-1 cells = assay: Cell proliferation assay CHL-1 (alamarBlue); assay type: cell-based; details: Homo sapiens, melanoma (BRAF wild-type) cells, 96 hours
Method: (§1) In accordance with the invention, the ability of the substances to inhibit cell proliferation was determined. Cell viability was determined by means of the alamarBlue® reagent (Invitrogen) in a Victor X3 Multilabel Reader (Perkin Elmer). The excitation wavelength was 530 nm and the emission wavelength […].
The CHL-1 cells (ATCC, CRL-9446) were seeded at a concentration of 1000 cells/well in 100 μl of growth medium (DMEM with glutamine, 10% FCS) on 96-well microtitre plates.
(§2) After overnight incubation at 37° C., the fluorescence values (CI values) were determined. Then the plates were treated with various substance dilutions (1E-5 M, 3E-6 M, 1E-6 M, 3E-7 M, 1E-7 M, 3E-8 M, 1E-8 M) and incubated at 37° C. over 96 hours (MOLM-13, B16F10, CHL-1 cells) or 120 hours (MOLP-8 cells). Subsequently, the fluorescence values were determined (CO values). For the data analysis, the CI values were subtracted from the CO values and the results were compared between cells which had been treated with various dilutions of the substance or only with buffer solution. The IC50 values (substance concentration needed for 50% inhibition of cell proliferation) were calculated therefrom.
(§3) The substances were tested in the cell lines in Table 2, which represent the indications specified by way of example: […]

[1] = molecular target: T1, BRD4 bromo domain 2 [BRD4(2)] (Homo sapiens, UniProt O60885); assay: BRD4(2)/acetylated peptide H4 TR-FRET binding assay; details: His6-BRD4(2) (aa 357-445) vs acetylated histone H4 peptide
T1 construct: N-terminally His6-tagged BRD4(2) (amino acids 357-445); made in house; host or cells: E. coli
Source text: To assess the BRD4(2) binding strength of the substances described in this application, the ability thereof to inhibit the interaction between BRD4(2) and acetylated histone H4 in a dose-dependent manner was quantified.
For this purpose, a time-resolved fluorescence resonance energy transfer (TR-FRET) assay was used, which measures the binding between N-terminally His6-tagged BRD4(2) (amino acids 357-445) and a synthetic acetylated histone H4 (Ac-H4) peptide with sequence SGRGK(Ac)GGK(Ac)GLGK(Ac)GGAK(Ac)RHRKVLRDNGSGSK-biotin. The recombinant BRD4(2) protein produced in-house according to Filippakopoulos et al., Cell, 2012, 149:214-231 was expressed in E. coli and purified by means of (Ni-NTA) affinity and (Sephadex G-75) size exclusion chromatography. The Ac-H4 peptide can be purchased, for example, from Biosyntan (Berlin, Germany).
In the assay, typically 11 different concentrations of each substance (0.1 nM, 0.33 nM, 1.1 nM, 3.8 nM, 13 nM, 44 nM, 0.15 μM, 0.51 μM, 1.7 μM, 5.9 μM and 20 μM) were analysed as duplicates on the same microtitre plate. For this purpose, 100-fold concentrated solutions in DMSO were prepared by serial dilutions (1:3.4) of a 2 mM stock solution into a clear, 384-well microtitre plate (Greiner Bio-One, Frickenhausen, Germany). From this, 50 nl were transferred into a black test plate (Greiner Bio-One, Frickenhausen, Germany). The test was started by the addition of 2 μl of a 2.5-fold concentrated BRD4(2) solution (final concentration typically 100 nM in the 5 μl of reaction volume) in aqueous assay buffer [50 mM HEPES pH 7.5, 50 mM sodium chloride (NaCl); 50 mM potassium fluoride (KF); 0.25 mM CHAPS and 0.05% serum albumin (BSA)] to the substances in the test plate. This was followed by a 10-minute incubation step at 22° C. for the pre-equilibration of putative complexes between BRD4(2) and the substances.
The mixture was then incubated in the dark at 22° C. for one hour and then at 4° C. for at least 3 hours and for no longer than overnight. The formation of BRD4(2)/Ac-H4 complexes was determined by the measurement of the resonance energy transfer from the streptavidin-Eu chelate to the anti-6His-XL665 antibody present in the reaction. For this purpose, the fluorescence emission was measured at 620 nm and 665 nm after excitation at 330-350 nm in a TR-FRET measuring instrument, for example a Rubystar or Pherastar (both from BMG Lab Technologies, Offenburg, Germany) or a Viewlux (Perkin-Elmer). The ratio of the emissions at 665 nm and at 622 nm was taken as an indicator of the amount of BRD4(2)/Ac-H4 complexes formed.
The data (ratios) obtained were normalized, with 0% inhibition corresponding to the mean from the measurements for a set of controls (typically 32 data points) in which all the reagents were present. In these, in place of test substances, 50 nl of DMSO (100%) were used. Inhibition of 100% corresponded to the mean from the measurements for a set of controls (typically 32 data points) in which all the reagents except BRD4(2) were present. The IC50 was determined by regression analysis based on a 4-parameter equation (minimum, maximum, IC50, Hill; Y=Max+(Min−Max)/(1+(X/IC50)Hill)).

B16F10 cells = assay: Cell proliferation assay B16F10 (alamarBlue); assay type: cell-based; details: Mus musculus, B16-F10, melanoma (BRAF wild-type) cells, 96 hours
Method: as §1
The B16F10 cells (ATCC, CRL-6475) were seeded at a concentration of 300-500 cells/well in 100 μl of growth medium (DMEM with phenol red, 10% FCS) on 96-well microtitre plates.
as §2, §3

MOLM-13 cells = assay: Cell proliferation assay MOLM-13, method 1 (alamarBlue); assay type: cell-based; details: Homo sapiens, acute myeloid leukaemia cells, 4000 cells/well, 96-well, 96 hours
Method: as §1
The MOLM-13 cells (DSMZ, ACC 554) were seeded at a concentration of 4000 cells/well in 100 μl of growth medium (RPMI1640, 10% FCS) on 96-well microtitre plates (method 1).
as §2, §3

Compound | IC50 (CHL-1 cells) | IC50 [1] | IC50 (B16F10 cells) | IC50 (MOLM-13 cells)
CCOC(=O)N=S(C)(=O)c1cccc(Nc2ccc3c(n2)N(C2CCOCC2)[C@H](C)C(=O)N3C)c1 (mixture of isomers) [Example 10, Ethyl [(3-{[(3R)-1,3-dimethyl-2-oxo-4-(tetrahydro-2H-pyran-4-yl)-1,2,3,4-tetrahydropyrido[2,3-b]pyrazin-6-yl]amino}phenyl)(methyl)oxido-λ^6-sulphanylidene]carbamate] | 0.196 µM | 6.12 µM | 0.304 µM | 0.368 µM
COc1ccc(S(=O)(=O)C(C)C)cc1Nc1ccc2c(n1)N(C(C)C)[C@H](C)C(=O)N2C [Example 16, (3R)-4-Isopropyl-6-{[5-(isopropylsulphonyl)-2-methoxyphenyl]amino}-1,3-dimethyl-3,4-dihydropyrido[2,3-b]pyrazin-2(1H)-one] | 0.076 µM | 0.033 µM | 0.18 µM | 0.184 µM
COc1ccc(S(=O)(=O)C2CCC2)cc1Nc1ccc2c(n1)N(C1CCOCC1)[C@H](C)C(=O)N2C [Example 35, (3R)-6-{[5-(Cyclobutylsulphonyl)-2-methoxyphenyl]amino}-1,3-dimethyl-4-(tetrahydro-2H-pyran-4-yl)-3,4-dihydropyrido[2,3-b]pyrazin-2(1H)-one] | 0.01 µM | 0.051 µM | 0.016 µM | 0.012 µM
Cc1ccc(S(C)(=O)=O)cc1Nc1ccc2c(n1)N(C1CCOCC1)[C@H](C)C(=O)N2C [Example 2, (3R)-1,3-Dimethyl-6-{[2-methyl-5-(methylsulphonyl)phenyl]amino}-4-(tetrahydro-2H-pyran-4-yl)-3,4-dihydropyrido[2,3-b]pyrazin-2(1H)-one] | 0.189 µM | 0.173 µM | 0.319 µM | 0.238 µM
CC(C)S(=O)(=O)c1ccc(OC(F)(F)F)c(Nc2ccc3c(n2)N(C2CCOCC2)[C@H](C)C(=O)N3C)c1 [Example 38, (3R)-6-{[5-(Isopropylsulphonyl)-2-(trifluoromethoxy)phenyl]amino}-1,3-dimethyl-4-(tetrahydro-2H-pyran-4-yl)-3,4-dihydropyrido[2,3-b]pyrazin-2(1H)-one] | 0.024 µM | 0.052 µM | 0.016 µM | 0.032 µM
C[C@@H]1C(=O)N(C)c2ccc(Nc3cccc(S(=O)(=O)C4CC4)c3)nc2N1C1CCOCC1 [Example 6, (3R)-6-{[3-(Cyclopropylsulphonyl)phenyl]amino}-1,3-dimethyl-4-(tetrahydro-2H-pyran-4-yl)-3,4-dihydropyrido[2,3-b]pyrazin-2(1H)-one] | 0.046 µM | 0.04 µM | 0.087 µM | 0.089 µM
COc1ccc(S(C)(=O)=O)cc1Nc1ccc2c(n1)N(C1CCOCC1)[C@H](C)C(=O)N2C [Example 3, (3R)-6-{[2-Methoxy-5-(methylsulphonyl)phenyl]amino}-1,3-dimethyl-4-(tetrahydro-2H-pyran-4-yl)-3,4-dihydropyrido[2,3-b]pyrazin-2(1H)-one] | 0.127 µM | 0.058 µM | 0.199 µM | 0.175 µM
C[C@@H]1C(=O)N(C)c2ccc(Nc3cccc(S(C)(=O)=O)c3)nc2N1C1CCN(C)CC1 [Example 11, (3R)-1,3-Dimethyl-4-(1-methylpiperidin-4-yl)-6-{[3-(methylsulphonyl)phenyl]amino}-3,4-dihydropyrido[2,3-b]pyrazin-2(1H)-one] | 0.109 µM | 0.075 µM | 0.445 µM | 0.188 µM
CC1C(=O)N(C)c2ccc(Nc3cccc(S(C)(=O)=O)c3)nc2N1c1ccccc1 (stereo not drawn) [Example 17, 1,3-Dimethyl-6-{[3-(methylsulphonyl)phenyl]amino}-4-phenyl-3,4-dihydropyrido[2,3-b]pyrazin-2(1H)-one] | 0.8 µM | 0.212 µM | 1.1 µM | 1.41 µM
COc1ccc(S(=O)(=O)C2CC2)cc1Nc1ccc2c(n1)N(C1CCOCC1)[C@H](C)C(=O)N2C [Example 8, (3R)-6-{[5-(Cyclopropylsulphonyl)-2-methoxyphenyl]amino}-1,3-dimethyl-4-(tetrahydro-2H-pyran-4-yl)-3,4-dihydropyrido[2,3-b]pyrazin-2(1H)-one] | 0.018 µM | 0.049 µM | 0.037 µM | 0.024 µM
COc1ccc(S(=O)(=O)C2CC2)cc1Nc1ccc2c(n1)N(C1CCN(C)CC1)[C@H](C)C(=O)N2C [Example 12, (3R)-6-{[5-(Cyclopropylsulphonyl)-2-methoxyphenyl]amino}-1,3-dimethyl-4-(1-methylpiperidin-4-yl)-3,4-dihydropyrido[2,3-b]pyrazin-2(1H)-one] | 0.013 µM | 0.067 µM | 0.081 µM | 0.02 µM
Cc1cc(Nc2ccc3c(n2)N(C2CCOCC2)[C@H](C)C(=O)N3C)ccn1 [Example 42, (3R)-1,3-Dimethyl-6-[(2-methylpyridin-4-yl)amino]-4-(tetrahydro-2H-pyran-4-yl)-3,4-dihydropyrido[2,3-b]pyrazin-2(1H)-one] | 0.445 µM | 0.18 µM | 1.08 µM | 0.686 µM
COc1ccc(S(=O)(=O)C(F)(F)F)cc1Nc1ccc2c(n1)N(C1CCN(C)CC1)[C@H](C)C(=O)N2C [Example 21, (3R)-6-({2-Methoxy-5-[(trifluoromethyl)sulphonyl]phenyl}amino)-1,3-dimethyl-4-(1-methylpiperidin-4-yl)-3,4-dihydropyrido[2,3-b]pyrazin-2(1H)-one] | 0.016 µM | 0.058 µM | 0.052 µM | 0.016 µM
COc1ccc(S(=O)(=O)C(C)C)cc1Nc1ccc2c(n1)N(C1CCNCC1)[C@H](C)C(=O)N2C [Example 26, (3R)-6-{[5-(Isopropylsulphonyl)-2-methoxyphenyl]amino}-1,3-dimethyl-4-(piperidin-4-yl)-3,4-dihydropyrido[2,3-b]pyrazin-2(1H)-one] | 0.022 µM | 0.052 µM | 0.147 µM | 0.01 µM
C[C@@H]1C(=O)N(C)c2ccc(Nc3cccc(S(C)(=O)=O)c3)nc2N1C1CCCCCC1 [Example 5, (3R)-4-Cycloheptyl-1,3-dimethyl-6-{[3-(methylsulphonyl)phenyl]amino}-3,4-dihydropyrido[2,3-b]pyrazin-2(1H)-one] | 0.371 µM | 0.096 µM | 0.611 µM | 0.651 µM
